For 14 compounds, TGI results are on record in PubChem BioAssay (NCI).

Common to all, as to assay: DTP human tumour cell line panel, 48 h
Experiment [1] relates to CCRF-CEM leukemia.
Experiment [2] deals with DU-145 prostate.
In experiment [3] the test system is HL-60(TB) leukemia.
Experiment [4] has as its system HOP-62 NSCLC.
Experiment [5] has as its system HOP-92 NSCLC.
For experiment [6], the system named is IGROV1 ovarian.
The test system of experiment [7] is K-562 leukemia.
In experiment [8] the test system is MCF7 breast.
The test system of experiment [9] is MDA-MB-231 breast.
Experiment [10] concerns MDA-N.
In experiment [11] the test system is NCI-H460 lung.
Experiment [12] deals with NCI/ADR-RES ovarian.
In experiment [13] the test system is OVCAR-8 ovarian.
Experiment [14] relates to RXF 393 renal.
The subject of experiment [15] is SK-MEL-5 melanoma.
In experiment [16] the test system is T-47D breast.
The test system of experiment [17] is U251 CNS.
In experiment [18] the test system is UO-31 renal.
Experiment [19] concerns M14 melanoma.
The test system of experiment [20] is SF-268 CNS.

As a reminder, the TGI is the concentration at which net growth stops. Read a high TGI as lower sensitivity of the cells.

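Five compound concentrations were applied to cells in 96-well plates for 48 hours; endpoints were derived by simple linear interpolation of the resulting dose-response curve. TGI marks complete inhibition of growth.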

`CC(O)C1(CNc2cc(Cl)nc(N)n2)CCC1` (centres undefined): the TGI in experiment [1], in experiment [2], in experiment [3], in experiment [4], in experiment [5] and in experiment [6] was more than 100 µM in each case. The total growth inhibition concentration (TGI) in experiment [7], in [8], in experiment [9], in experiment [10], in [11] and in experiment [12] was more than 100 µM each time. The TGI in experiment [13], in experiment [14], in experiment [15], in [16], in [17] and in experiment [18] was more than 100 µM throughout.
With `O=c1[nH]nc(Cc2ccccc2)n1/N=C/c1ccccc1O`, the TGI is more than 100 µM in experiment [1]; more than 100 µM in experiment [2]; more than 100 µM in experiment [3]; 99.8 µM in experiment [4]; more than 100 µM in [5]; more than 100 µM in [6]. Besides, the TGI in [7], in experiment [19], in [8], in experiment [9], in experiment [10] and in [11] was more than 100 µM throughout. Further, the TGI in experiment [12] was more than 100 µM; in experiment [13] it was more than 100 µM; in experiment [14], 53.5 µM; in [20], more than 100 µM; in experiment [15], more than 100 µM; in experiment [16] it was more than 100 µM. Moreover, the TGI in experiment [17] and in experiment [18] was more than 100 µM throughout.
On to `Oc1[nH]c2ccccc2c1N=NC(=S)Nc1cccc(Cl)c1`, for which the TGI in experiment [1] was 31 µM; in experiment [2], more than 100 µM; in experiment [3], 49.6 µM; in experiment [4], 42.5 µM; in experiment [5], 70.3 µM; in [6], 89 µM. Moreover, the TGI was 50 µM in experiment [7]; 24.7 µM in [19]; more than 100 µM in experiment [8]; 52.3 µM in experiment [9]; more than 100 µM in [10]; 65.2 µM in experiment [11]. The TGI in experiment [12] is 8 µM; in experiment [13] it was 35.7 µM; in [14] it was 48.7 µM; in experiment [20], more than 100 µM; in [15], 18.8 µM; in experiment [16], more than 100 µM. For the same compound, the TGI in experiment [17] was 89.1 µM; in experiment [18], more than 100 µM.
`CC(CO)(CO)N1C(=O)C2C3C=CC(C3)C2C1=O` (centres undefined): the TGI in experiment [1], in [2], in [3], in [4], in experiment [5] and in [6] was more than 100 µM each time. Besides, the concentration for total growth inhibition (TGI) in experiment [7], in experiment [19], in [8], in [9], in experiment [10] and in experiment [11] was more than 100 µM in each case. Besides, the TGI in experiment [12], in experiment [13], in experiment [14], in [20], in [15] and in experiment [16] was more than 100 µM in each case. Further, the TGI in experiment [17] and in experiment [18] was more than 100 µM throughout.
Consider `O=Cc1[nH]c(=O)[nH]c(=O)c1C(=O)O`, for which the total growth inhibition concentration (TGI) in experiment [1], in experiment [2], in experiment [3], in experiment [4], in experiment [5] and in [6] was more than 100 µM in each case. Also, the TGI in [7], in [19], in [8], in experiment [9], in experiment [10] and in experiment [11] was more than 100 µM each time. In addition, the TGI in [12], in experiment [13], in experiment [14], in experiment [20], in experiment [15] and in experiment [16] was more than 100 µM each time. Also, the TGI in experiment [17] and in experiment [18] was more than 100 µM in each case.
As for `O=C1/C(=C/c2ccccc2S)N=C(c2ccccc2)N1c1nc2c(Cl)cc(Cl)cc2s1`, the TGI was 13.7 µM in experiment [1]; more than 100 µM in experiment [2]; 42.6 µM in experiment [3]; 47.2 µM in experiment [4]; 49.6 µM in experiment [5]; 67.2 µM in experiment [6]. The total growth inhibition concentration (TGI) in experiment [7] is 81.5 µM; in experiment [19], 66.2 µM; in experiment [8], 58.1 µM; in [9], 80.9 µM; in [10] it was 36.9 µM; in experiment [11] it was more than 100 µM. For the same compound, the TGI is 84.9 µM in experiment [12]; 73.3 µM in [13]; 58 µM in [14]; more than 100 µM in [20]; 36 µM in [15]; more than 100 µM in experiment [16]. The TGI in experiment [17] amounted to 54.2 µM; in experiment [18] it was 48.1 µM.
As for `N#Cc1c(N)nc2n[nH]c(N)c2c1-c1ccc(Cl)cc1`, the TGI in experiment [1] was more than 100 µM; in experiment [2], more than 71.8 µM; in [3] it was more than 100 µM; in [4], 71.5 µM; in experiment [5], 6.14 µM; in experiment [6], 7.39 µM. Moreover, the TGI in experiment [7] was more than 100 µM; in experiment [19], more than 39.8 µM; in [8], 19 µM; in experiment [9], 10.4 µM; in experiment [10] it was more than 100 µM; in experiment [11], more than 96.7 µM. In addition, the TGI in experiment [12] is 61.6 µM; in [13] it was more than 50.8 µM; in experiment [14] it was 7.26 µM; in experiment [20], more than 100 µM; in [15], more than 81.1 µM; in experiment [16] it was 4.62 µM. Further, the values for the concentration for total growth inhibition (TGI) in [17] and in experiment [18] were more than 55 µM and 19.9 µM, respectively.
In the case of `CN1CCN(C(=S)N2CCN(C)CC2)CC1`, the TGI in experiment [2], in experiment [3], in [4], in experiment [5], in experiment [6] and in experiment [7] was more than 100 µM each time. In addition, the total growth inhibition concentration (TGI) is more than 100 µM in experiment [19]; more than 37.3 µM in [8]; more than 100 µM in experiment [9]; more than 100 µM in experiment [10]; more than 21.8 µM in experiment [11]; more than 100 µM in [12]. For the same compound, the TGI in experiment [13], in experiment [14], in experiment [20], in experiment [15], in experiment [16] and in experiment [17] was more than 100 µM in each case. In experiment [18], the TGI is more than 100 µM.
For `CC(C)=CC[C@]12CCN[C@H]1N(S(=O)(=O)c1ccccc1)c1ccccc12`, the concentration for total growth inhibition (TGI) in [1] is more than 100 µM; in experiment [2] it was more than 100 µM; in experiment [3], 45.6 µM; in [4] it was 29.1 µM; in experiment [5] it was 28.3 µM; in experiment [6], 30.8 µM. In addition, the TGI worked out at 56.9 µM in experiment [7]; 39.8 µM in experiment [8]; 58.5 µM in experiment [9]; 29.1 µM in experiment [10]; 29 µM in experiment [11]; 30.5 µM in experiment [12]. Besides, the concentration for total growth inhibition (TGI) in experiment [13] is 33.9 µM; in experiment [14], 27.6 µM; in experiment [20] it was 33.3 µM; in [15] it was 28.1 µM; in experiment [16], 92.9 µM; in [17], 30.7 µM. This compound also yielded a TGI in experiment [18] of 33.3 µM.
With `Cc1ccnc2[nH]c3ccccc3c(=O)c12`, the TGI in [1] was more than 100 µM; in [2], more than 100 µM; in experiment [3] it was 61.3 µM; in experiment [4] it was more than 100 µM; in experiment [5] it was more than 100 µM; in [6] it was 49.5 µM. In addition, the TGI in experiment [7] was more than 100 µM; in experiment [19] it was more than 100 µM; in [8] it was more than 100 µM; in experiment [9], more than 100 µM; in [10] it was 47 µM; in [11], 97.5 µM. Also, the TGI is more than 100 µM in experiment [12]; more than 100 µM in experiment [13]; 41.8 µM in experiment [14]; 45.5 µM in experiment [20]; 33.2 µM in experiment [15]; more than 100 µM in experiment [16]. Further, the TGI in [18] was more than 100 µM.
On to `CSc1ncnc2c1ncn2CCC(=O)OC(C)(C)C`, for which the TGI in experiment [1], in [2], in [3], in [4], in [5] and in experiment [6] was more than 100 µM in each case. For the same compound, the TGI in experiment [7], in experiment [19], in experiment [8], in experiment [9], in experiment [10] and in experiment [11] was more than 100 µM in each case. For the same compound, the TGI in [12], in experiment [13], in experiment [14], in experiment [20], in experiment [15] and in experiment [16] was more than 100 µM each time. Further, the TGI in experiment [18] was more than 100 µM.
With `COc1ccc(C(OCC2OC(n3cc(C)c(=O)[nH]c3=O)CC2n2cc(Cn3cc(Cl)c(=O)[nH]c3=O)nn2)(c2ccccc2)c2ccccc2)cc1` (centres undefined), the concentration for total growth inhibition (TGI) is more than 100 µM in [2]; 6.99 µM in experiment [3]; more than 100 µM in experiment [4]; more than 100 µM in experiment [5]; more than 100 µM in experiment [6]; more than 100 µM in [19]. The concentration for total growth inhibition (TGI) in [8], in [9], in experiment [10], in experiment [12], in experiment [13] and in [14] was more than 100 µM throughout. Besides, the TGI in experiment [20], in experiment [15], in [16], in [17] and in experiment [18] was more than 100 µM throughout.
Turning to `COC(CNC(=O)C(C)NC(=O)/C=C/c1ccccc1)OC` (centres undefined), the total growth inhibition concentration (TGI) in [1], in [2], in [3], in [5], in experiment [6] and in [7] was more than 100 µM in each case. Moreover, the TGI in experiment [19], in experiment [8], in experiment [9], in [10], in experiment [11] and in experiment [12] was more than 100 µM each time. Also, the TGI in [13], in experiment [14], in experiment [20], in experiment [15], in experiment [16] and in experiment [17] was more than 100 µM each time. In addition, the TGI in [18] is more than 100 µM.
Take `N#Cc1c(-c2ccc(Cl)cc2Cl)nc2[nH][nH]c(=S)n2c1=O`: the total growth inhibition concentration (TGI) in [1], in experiment [2], in [3], in [4], in experiment [5] and in experiment [6] was more than 100 µM each time. The TGI in experiment [19], in experiment [8], in experiment [9], in [10], in experiment [11] and in experiment [12] was more than 100 µM in each case. For the same compound, the TGI in experiment [13], in experiment [14], in experiment [20], in [15], in experiment [16] and in experiment [17] was more than 100 µM throughout. Moreover, in experiment [18], the total growth inhibition concentration (TGI) was more than 100 µM.
